# Test results taken from publication PMC3003687, “α-Galactosylceramide Analogs with Weak Agonist Activity for Human iNKT Cells Define New Candidate Anti-Inflammatory Agents” (PLoS ONE, 2010).
# Legend:
# human iNKT cell clones = test: Cytokine ELISA of human iNKT cell clones stimulated with glycolipid-pulsed CD1d-transfected HeLa cells; type: cell-based
# Procedure: Capture ELISA assays were used for measurement of cytokine responses of human iNKT cells to αGalCer analogs. One day prior to the experiment, CD1d transfected HeLa cells were plated at 25×10^3 cells/well in 100 µL of medium in flat-bottom 96 well plates. Glycolipids were then added in 100 µL of medium to give final concentrations ranging from 0.05 to 10^4 nM. The APCs were incubated for approximately 18 hours with the glycolipids and then irradiated (10,000 Rad) and washed twice with PBS prior to addition of 25×10^3 iNKT cells well in 300 µL. Supernatants were harvested after 24 hours of co-culture and stored frozen at -20°C. After thawing, aliquots of the supernatants were assayed for specific cytokines by ELISA using capture and biotin-labeled detection antibody pairs specific for GM-CSF, IL-2, IL-4, IL-12p70 and IL-13 (all obtained from BD Biosciences), IFNγ (Thermo-Scientific) or IL-18 (MBL). Specific signals were developed using HRP- conjugated streptavidin (BD Biosciences) and Turbo TMB substrate (Thermo-Scientific). Supernatants were tested pure and/or diluted to give values within a quantitative linear standard curve generated with recombinant cytokines. Curves of dose-dependent cytokine responses and graphs were plotted using the Graphpad Prism Software. EC50 values were calculated using the function log (agonist) response with variable slope, and statistical analyses were carried out using the same software. To calculate concentration-dependent cytokine ratios, IL-4/IFNγ and IL-13/IFNγ ratios were calculated using cytokine values from which background levels (i.e. levels in cultures receiving DMSO vehicle alone) were subtracted. Ratios were calculated by dividing IL-4 or IL-13 concentrations in pg/mL by IFNγ concentration in ng/mL.
# Human iNKT TCRs = Human iNKT TCRs (Homo sapiens, UniProt A0A075B6N4+A0A0B4J240+P15813); test: Equilibrium binding of analog-loaded hCD1d tetramers to iNKT cell clones
# Source text: For flow cytometric analysis, 6B11 (Vα24Jα18 specific) and mAbs specific for human CD3, CD4, CD8α, CD19, CD40L (CD154), CD56, CD69, GM-CSF & IFNγ were obtained from BD Biosciences. IL-4 and IL-13 specific mAbs were from Biolegend. Vα24 (C15) and Vβ11 (C21) specific mAb were from Immunotech. For antibody blocking in culture assays, non-specific isotype matched control, IL-2, IFNγ, IL-12p70 and CD40L specific mAbs without preservatives were obtained from BD Biosciences and IL-18 specific mAb from Medical & Biological Laboratories (MBL, Nagoya, Japan). Phycoerythrin and allophycocyanin labeled human CD1d tetramers were prepared in our laboratory as previously described. Curves of tetramer equilibrium binding constants and graphs were plotted using the Graphpad Prism Software (Version 5). KD values were calculated using the function non-linear fit (hyperbola, one binding site).
# To characterize in more detail the iNKT cell TCR recognition of αGalCer analogs presented by human CD1d, we generated soluble and fluorescent tetrameric hCD1d molecules loaded with each of the glycolipid analogs. […] This was similar to the previously reported failure of mouse CD1d tetramer loaded with lysosulfatide to bind detectably to murine non-invariant and sulfatide specific NKT cells, despite a clear reactivity to this lipid upon presentation by APCs; [40]. […] To quantitate their binding avidities to iNKT cell TCRs, we used titration of analog-loaded hCD1d tetramers to determine equilibrium dissociation constants (KD), which are inversely proportional to avidity (Figure 3A and 3B).
# Figure 3 Characterization of human iNKT cell TCR interactions with analog-loaded tetramers. (A) iNKT cell clones were stained with titrated amounts of hCD1d tetramers loaded with the indicated glycolipids (abbreviations as in legend to Figure 1), and the measured MFI values are plotted for selected glycolipids. (B) The equilibrium dissociation constants (KD, inversely proportional to TCR avidity) were determined as the concentrations of tetramers required to yield 50% of maximal binding. Data shown were obtained using the CD4^+ iNKT cell clone HDD3, and similar results (not shown) were obtained with a second CD4^+ clone (HDD11) and a CD4^−8^− double negative iNKT cell clone (HDE3). (C) Analysis of iNKT cell clones labeled with 20 nM of hCD1d tetramers which were loaded with variable excesses of analog to constant hCD1d (25 to 1000 fold molar excess of glycolipid to hCD1d protein). The measured MFI values were normalized as the percent of the maximum staining intensity obtained with each analog loaded tetramer. Data presented were generated with HDD3 (CD4+) iNKT cell clone, and similar results (not shown) were obtained with HDE3 (DN) clone.
# human iNKT cells = settings: cited from earlier work
# Chain of Human iNKT TCRs (P15813 20-301): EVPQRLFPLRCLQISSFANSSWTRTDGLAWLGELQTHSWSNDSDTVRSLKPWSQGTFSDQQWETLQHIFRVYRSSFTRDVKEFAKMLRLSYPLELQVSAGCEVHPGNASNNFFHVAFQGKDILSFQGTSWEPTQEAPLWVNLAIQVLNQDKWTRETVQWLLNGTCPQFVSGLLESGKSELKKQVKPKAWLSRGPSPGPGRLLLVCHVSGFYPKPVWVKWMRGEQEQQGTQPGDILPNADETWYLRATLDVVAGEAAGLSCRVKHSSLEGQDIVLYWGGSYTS
# Chain of Human iNKT TCRs (P01848 whole entry, further chain): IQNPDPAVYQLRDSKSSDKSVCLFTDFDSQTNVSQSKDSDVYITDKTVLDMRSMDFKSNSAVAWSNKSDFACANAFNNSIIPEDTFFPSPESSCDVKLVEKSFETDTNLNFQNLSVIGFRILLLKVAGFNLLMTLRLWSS
# Chain of Human iNKT TCRs (A0A0B4J240 22-114): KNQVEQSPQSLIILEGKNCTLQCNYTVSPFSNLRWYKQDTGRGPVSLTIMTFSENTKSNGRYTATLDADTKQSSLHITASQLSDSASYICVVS
# Chain of Human iNKT TCRs (P61769 21-119, further chain): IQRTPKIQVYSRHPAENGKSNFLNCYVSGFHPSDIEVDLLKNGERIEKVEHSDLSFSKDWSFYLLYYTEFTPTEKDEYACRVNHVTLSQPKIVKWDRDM
# Chain of Human iNKT TCRs (A0A075B6N4 22-114): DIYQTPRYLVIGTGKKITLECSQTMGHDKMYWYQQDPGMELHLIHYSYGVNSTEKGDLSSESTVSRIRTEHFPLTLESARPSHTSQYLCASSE
structure (smiles),measurement,setting,value
CCCCCCCCCCCCCCCCCCCCCCCC(=O)N[C@@H](CO[C@H]1O[C@H](CO)[C@H](O)[C@H](O)[C@H]1O)[C@H](O)[C@H](O)CCCCC [OCH],EC50,"human iNKT cell clones; Homo sapiens, iNKT, HDD3 clone, IL-4 levels did not reach a plateau",> 10 µM
same,induction of IL-4,human iNKT cell clones; all clones tested,minimal
same,concentration required to induce detectable IL-13 production or weak IFNγ secretion,human iNKT cell clones; all iNKT cell clones tested,> 10 nM
same,iNKT cell clone cytokine response / agonist activity,"human iNKT cell clones; dose range, IFNγ, IL-4, IL-13, clones HDD3, HDD11, HDE3, HDA7",much weaker reactivity
same,staining of iNKT cell clones by analog-loaded hCD1d tetramers,Human iNKT TCRs,only a weak staining intensity of a subset of iNKT cell clones tested
same,ability to stimulate human iNKT cells,human iNKT cells,weak or no detectable ability to stimulate human iNKT cells
